According to patent publication EP4567031A1, “HPK1 INHIBITOR, PREPARATION METHOD THEREFOR, AND USE THEREOF” (Beijing Earthwise Technology Co., Ltd., priority 2022, dated 2024):
Where two headings read alike, the source gives them in different places.

Tested on: human Pan T cells
Assay: Human Pan T cell IL-2 ELISA
Assay type: cell-based
Conditions: read-out: IL-2 release, EC50
Protocol: A compound was dissolved in DMSO to 10 mM, and then diluted three-fold with DMSO to 9 dosages in a 96-well plate. Then, 10 µL of the diluted compound sample was transferred to a 96-well plate with 90 µL of cell culture medium, and the plate was shaken for 5 minutes. Then, 5 µL of the diluted compound sample was transferred to a 96-well plate with 120 µL of cell culture medium, and the plate was shaken for 5 minutes. According to the experimental design diagram, 50 µL of the diluted compound sample was transferred to a cell plate. Final concentrations of the compound in this assay were 10000.00, 5000, 2500, 1250, 625, 312.5, 156.25, 78.125 and 39.063 nM.
The assay was conducted in a 96-well plate. On the first day of the assay, Anti-CD3 was added to the 96-well plate and incubated in a 4 °C refrigerator overnight. On the second day of the assay, human Pan T cells were recovered, centrifuged and counted. The cell density was adjusted to 1*10^6 cells/ml. Then, 100 µL of cells were added to the 96-well plate washed with PBS and added with Anti-CD3; according to the experimental design diagram, 50 µL of diluted Anti-CD28 and 50 µL of the diluted compound were added to each well, centrifuged, and the cell plate was placed and incubated in an incubator for 48 hours; after 48 hours, the plate was centrifuged and the supernatant was collected for IL-2 ELISA.
The signal value of light absorption was converted into a multiple. Multiple = sample value/the average value of control wells. The average value of control wells refers to the value measured in wells with DMSO added. EC50 values were calculated by XLFit (version 5.3.1.3) in Excel. Equation: Y=Bottom + (Top-Bottom) / (1 + (EC50/X) ^ HillSlope). Table 6. Results of cellular activity of the compounds

[1] = Homo sapiens, T-cell, 48 h, Anti-CD3 and Anti-CD28, supernatant IL-2 ELISA
[2] = Anti-CD3 and Anti-CD28, 48 hours, supernatant IL-2 ELISA

EC50 [1] [nM] | EC50 [2] [nM] | Compound
66.7 |  | COC1CCCn2c(-c3cc4c(c5c3CNC5=O)Nc3ccc(N5CCOCC5)cc3C4(C)C)nnc21 (racemic) [Example 120]
33.4 |  | COC1CCCn2c(-c3cc4c(c5c3CNC5=O)Nc3ccc(N5CCOCC5)nc3C4(C)C)cnc21 (single isomer, unassigned) [Example 25]
6.33 |  | CC1(C)c2cc(N3CCOC(C(C)(C)O)C3)ccc2Nc2c1cc(-c1cnc3cc(F)ccn13)c1c2C(=O)NC1 (single isomer, unassigned) [Example 93]
7.82 |  | Cc1ccc2c(-c3cc4c(c5c3CNC5=O)Nc3ccc(N5CCOC(C(C)(C)O)C5)cc3C4(C)C)cnn2c1 (single isomer, unassigned) [Example 95]
18.3 |  | Cc1ccn2c(-c3cc4c(c5c3CNC5=O)Nc3ccc(N5CCOC(C(C)(C)O)C5)cc3C4(C)C)cnc2c1 (single isomer, unassigned) [Example 106]
7.23 |  | CC1(C)c2cc(N3CCOC(C(C)(C)O)C3)ccc2Nc2c1cc(-c1cnc3cc(Cl)ccn13)c1c2C(=O)NC1 (single isomer, unassigned) [Example 125]
12.4 |  | COc1c(F)ccn2c(-c3cc4c(c5c3CNC5=O)Nc3ccc(N5CCOC(C(C)(C)O)C5)cc3C4(C)C)cnc12 (single isomer, unassigned) [Example 127]
18.2 |  | CC1(C)c2cc(N3CCOC(C(C)(C)O)C3)ccc2Nc2c1cc(-c1cnc3cc(C(F)F)ccn13)c1c2C(=O)NC1 (single isomer, unassigned) [Example 129]
10.1 |  | COC1CCCn2c(-c3cc4c(c5c3CNC5=O)Nc3ccc(N5CCOC(C(C)(C)O)C5)cc3C4(C)C)cnc21 (single isomer, unassigned) [Example 132]
22.1 |  | CC1(C)c2cc(N3CCOC(C(C)(C)O)C3)ccc2Nc2c1cc(-c1cnc3cc(C#N)ccn13)c1c2C(=O)NC1 (single isomer, unassigned) [Example 133]
19.5 |  | CCc1ncc(-c2cc3c(c4c2CNC4=O)Nc2ccc(N4CCOC(C(C)(C)O)C4)cc2C3(C)C)n1C (single isomer, unassigned) [Example 134]
24.5 |  | CCOC1CCCn2c(-c3cc4c(c5c3CNC5=O)Nc3ccc(N5CCOCC5)cc3C4(C)C)cnc21 (single isomer, unassigned) [Example 136]
35.8 |  | COC1CCCn2c(-c3cc4c(c5c3CNC5=O)Nc3ccc(N5CC(C)OC(C)C5)cc3C4(C)C)cnc21 (single isomer, unassigned) [Example 140]
87.3 |  | Cn1c(-c2cc3c(c4c2CNC4=O)Nc2ccc(N4CCOC(C(C)(C)O)C4)cc2C3(C)C)cnc1C1CCOCC1 (single isomer, unassigned) [Example 141]
25.1 |  | COC1CCn2c(-c3cc4c(c5c3CNC5=O)Nc3ccc(N5CCOC(C(C)(C)O)C5)cc3C4(C)C)cnc2C1 (single isomer, unassigned) [Example 142]
592 |  | Cn1c(-c2cc3c(c4c2CNC4=O)Nc2ccc(N4CCOC(C(C)(C)O)C4)cc2C3(C)C)cnc1C1CCNC1 (single isomer, unassigned) [Example 143]
134 |  | COC1CCCn2c(-c3cc4c(c5c3CNC5=O)Nc3cc(C5CCOCC5)ccc3C4(C)C)cnc21 (single isomer, unassigned) [Example 144]
6.5 |  | CC1(C)c2cc(N3CCOC(C(C)(C)O)C3)ccc2Nc2c1cc(-c1cnn3cc(C#N)ccc13)c1c2C(=O)NC1 (single isomer, unassigned) [Example 145]
5.7 |  | Cn1ncc2c(-c3cc4c(c5c3CNC5=O)Nc3ccc(N5CCOC(C(C)(C)O)C5)cc3C4(C)C)cncc21 (single isomer, unassigned) [Example 146]
42.7 |  | Cn1c(-c2cc3c(c4c2CNC4=O)Nc2ccc(N4CCOC(C(C)(C)O)C4)cc2C3(C)C)cnc1C1CCOC1 (single isomer, unassigned) [Example 147]
21.8 |  | Cc1c(-c2cc3c(c4c2CNC4=O)Nc2ccc(N4CCOC(C(C)(C)O)C4)cc2C3(C)C)cnn1C1CC1 (single isomer, unassigned) [Example 148]
30.6 |  | COC1CCCn2c(-c3cc4c(c5c3CNC5=O)Nc3cc(C)c(N5CCOCC5)cc3C4(C)C)cnc21 (single isomer, unassigned) [Example 150]

EC50 [1] [nM] | EC50 [2] [nM] | Compound
68.8 |  | CCOc1ccc2c(-c3cc4c(c5c3CNC5=O)Nc3ccc(N5CCOC(C(C)(C)O)C5)cc3C4(C)C)cnn2c1 (single isomer, unassigned) [Example 151]
34.6 |  | COC1CCCn2c(-c3cc4c(c5c3CNC5=O)Nc3ccc(N5C6CCC5COC6)cc3C4(C)C)cnc21 (single isomer, unassigned) [Example 152]
46.8 |  | Cn1c(-c2cc3c(c4c2CNC4=O)Nc2ccc(N4CCOC(C(C)(C)O)C4)cc2C3(C)C)cnc1OC1CCOC1 (single isomer, unassigned) [Example 153]
7.35 |  | CC1(C)c2cc(N3CCOC(C(C)(C)O)C3)ccc2Nc2c1cc(-c1cnn3cc(Cl)ccc13)c1c2C(=O)NC1 (single isomer, unassigned) [Example 154]
6.47 |  | COc1ccc2c(-c3cc4c(c5c3CNC5=O)Nc3ccc(N5CCOC(C(C)(C)O)C5)cc3C4(C)C)cnn2c1 (single isomer, unassigned) [Example 157]
37.6 |  | COC1CCCn2c(-c3cc4c(c5c3CNC5=O)Nc3ccc(N5CCCOCC5)cc3C4(C)C)cnc21 (single isomer, unassigned) [Example 158]
23.6 |  | CCC1(C)c2cc(N3CCOCC3)ccc2Nc2c1cc(-c1cnc3n1CCCC3OC)c1c2C(=O)NC1 (single isomer, unassigned) [Example 159]
6.33 |  | Cc1ccn2c(-c3cc4c(c5c3CNC5=O)Nc3ccc(N5CCOC(C(C)(C)O)C5)cc3C4(C)C)cnc2n1 (single isomer, unassigned) [Example 162]
25 |  | COC1CCCn2c(-c3cc4c(c5c3CNC5=O)Nc3ccc(C5CCOCC5)cc3C4(C)C)cnc21 (single isomer, unassigned) [Example 163]
14 |  | COC1CCCn2c(-c3cc4c(c5c3CNC5=O)Nc3cc(C#N)c(N5CCOCC5)cc3C4(C)C)cnc21 (single isomer, unassigned) [Example 175]
25 |  | COC1CCCc2c(-c3cc4c(c5c3CNC5=O)Nc3ccc(N5CCOCC5)cc3C4(C)C)cnn21 (single isomer, unassigned) [Example 177]
19 |  | COC1CCCn2c(-c3cc4c(c5c3CNC5=O)Nc3c(F)cc(N5CCOCC5)cc3C4(C)C)cnc21 (single isomer, unassigned) [Example 178]
20 |  | COc1cc2c(cc1N1CCOCC1)C(C)(C)c1cc(-c3cnc4n3CCCC4OC)c3c(c1N2)C(=O)NC3 (single isomer, unassigned) [Example 182]
15 |  | CC1(C)c2cc(N3CCOCC3)ccc2Nc2c1cc(-c1cnc3n1CCCC3OC1CC1)c1c2C(=O)NC1 (single isomer, unassigned) [Example 187]
53 |  | Cn1c(-c2cc3c(c4c2CNC4=O)Nc2ccc(N4CCOCC4)cc2C3(C)C)cnc1C1CCCO1 (single isomer, unassigned) [Example 190]
 | 28 | Cn1c(-c2cc3c(c4c2CNC4=O)Nc2ccc(N4CCOCC4)cc2C3(C)C)cnc1C1CCCO1 (single isomer, unassigned) [Example 191]
 | 8.7 | COC1CCc2c(-c3cc4c(c5c3CNC5=O)Nc3ccc(N5CCOCC5)cc3C4(C)C)cncc21 (single isomer, unassigned) [Example 202]
 | 95 | COC1CCc2c(-c3cc4c(c5c3CNC5=O)Nc3ccc(N5CCOCC5)cc3C4(C)C)cncc21 (single isomer, unassigned) [Example 203]
11 |  | CCC1(C)c2cc(N3CCOCC3)ccc2Nc2c1cc(-c1cnc3c(OC)nccn13)c1c2C(=O)NC1 (single isomer, unassigned) [Example 212]
 | 19 | CCC1(C)c2cc(N3CCOCC3)ccc2Nc2c1cc(-c1cnc3c(OC)nccn13)c1c2C(=O)NC1 (single isomer, unassigned) [Example 213]
 | 19 | CC1CCCn2c(-c3cc4c(c5c3CNC5=O)Nc3ccc(N5CCOCC5)cc3C4(C)C)cnc21 (single isomer, unassigned) [Example 218]
 | 8.1 | CC1CCCn2c(-c3cc4c(c5c3CNC5=O)Nc3ccc(N5CCOCC5)cc3C4(C)C)cnc21 (single isomer, unassigned) [Example 219]

Compound | EC50 [1] [nM] | EC50 [2] [nM]
COC1CCCn2c(-c3cc4c(c5c3CNC5=O)Nc3ccc(N5CCOCC5C)cc3C4(C)C)cnc21 (single isomer, unassigned) [Example 155] | 26.6 | 
COC1CCCn2c(-c3cc4c(c5c3CNC5=O)Nc3ccc(N5CCOCC5C)cc3C4(C)C)cnc21 (single isomer, unassigned) [Example 180] |  | 27
COC1CCCn2c(-c3cc4c(c5c3CNC5=O)Nc3ccc(N5CCOCC5C)cc3C4(C)C)cnc21 (single isomer, unassigned) [Example 181] |  | 26
